Experimental data published in patent US20020137929A1, “1 - (3-heterocyclylphenyl) isothiourea, -isourea, -guanidine and -amidine herbicidal agents” (Intellectual Property Department, BASF Aktiengesellschaft, priority 1998, published 2002).

Key:
AMBEL (Ragweed, Common) [1] = assay: Preemergence herbicidal evaluation; assay type: in vivo, Ambrosia artemisifolia; settings: rated 4-5 weeks after treatment
Outline: (§1)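 Seeds were planted in potting soil in cups, then sprayed preemergence with the test compound in aqueous acetone at about 0.0156 to 0.500 kg per hectare. Cups were kept under greenhouse conditions and visually rated 4–5 weeks after treatment on a 0–9 scale against an untreated control.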

[2] = tested on: IPOHE (Morningglory, Ivyleaf); assay: Preemergence herbicidal evaluation; assay type: in vivo, Ipomoea hederacea; settings: rated 4-5 weeks after treatment
Outline: as §1

[3] = tested on: IPOHE (Morningglory, Ivyleaf); assay: Postemergence herbicidal evaluation; assay type: in vivo, Ipomoea hederacea
Outline: (§2)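 Herbicidal effect was judged by eye on a 0–9 scale covering stand, vigor, deformity, size and chlorosis, compared with controls, four to five weeks after seedlings about two weeks old were sprayed (40 psi, ~0.0156–0.500 kg/ha).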

ABUTH (Velvetleaf) = assay: Preemergence herbicidal evaluation; assay type: in vivo, Abutilon theophrasti; settings: rated 4-5 weeks after treatment
Outline: as §1

[4] = tested on: GLXMAW (Soybean, Williams); assay: Postemergence herbicidal evaluation; assay type: in vivo, Glycine max, (L.) Merr. cv Williams
Outline: as §2

[5] = tested on: TRZAWR (Wheat, Winter, cv Riband); assay: Postemergence herbicidal evaluation; assay type: in vivo, Triticum aestivum
Outline: as §2

ECHCG (Barnyardgrass) = assay: Postemergence herbicidal evaluation; assay type: in vivo, Echinochloa crus-galli
Outline: as §2

[6] = tested on: GLXMAW (Soybean, Williams); assay: Preemergence herbicidal evaluation; assay type: in vivo, Glycine max, (L.) Merr. cv Williams; settings: rated 4-5 weeks after treatment
Outline: as §1

[7] = tested on: SAGPY (Arrowhead (Pygmaea)); assay: Preemergence weed control under flooded paddy conditions; assay type: in vivo, Sagittaria pygmaea; settings: rated 3-4 weeks after treatment
Outline: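 Silt loam, seeds in top 0.5 cm; flood held 1.5-3 cm; test cpd as acetone/water 50/50 into flood water, ~0.0313-0.500 kg/ha a.i.; greenhouse 3-4 wk; visual 0-9 score vs control.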

CASOB (Sicklepod) [8] = assay: Postemergence herbicidal evaluation; assay type: in vivo, Cassia obtusifolia
Outline: as §2

[9] = tested on: CHEAL (Lambsquarters, Common); assay: Preemergence herbicidal evaluation; assay type: in vivo, Chenopodium album; settings: rated 4-5 weeks after treatment
Outline: as §1

[10] = tested on: CHEAL (Lambsquarters, Common); assay: Postemergence herbicidal evaluation; assay type: in vivo, Chenopodium album
Outline: as §2

CASOB (Sicklepod) [11] = assay: Preemergence herbicidal evaluation; assay type: in vivo, Cassia obtusifolia; settings: rated 4-5 weeks after treatment
Outline: as §1

AMBEL (Ragweed, Common) [12] = assay: Postemergence herbicidal evaluation; assay type: in vivo, Ambrosia artemisifolia
Outline: as §2

ORYSAT (Rice, Tebonnet) = assay: Preemergence herbicidal evaluation; assay type: in vivo, Oryza sativa, (L.) Tebonnet; settings: rated 4-5 weeks after treatment
Outline: as §1

## CCOC(=O)CCN1C(=O)CSC1=Nc1cc(-n2c(=O)cc(C(F)(F)F)n(C)c2=O)c(Cl)cc1Cl [Compound 32, Ethyl 2-{{2,4-dichloro-5-[3,6-dihydro-3-methyl-2,6-dioxo-4-(trifluoromethyl)-1(2H)-pyrimidinyl]-phenyl}imino}-4-oxo-3-thiazolidinepropionate]
AMBEL (Ragweed, Common) [1]; rate 0.0156 kg/ha
  Preemergence herbicidal rating AMBEL: 0.0
AMBEL (Ragweed, Common) [1]; rate 0.0313 kg/ha
  Preemergence herbicidal rating AMBEL: 0.5
AMBEL (Ragweed, Common) [1]; rate 0.0625 kg/ha
  Preemergence herbicidal rating AMBEL: 0.5
AMBEL (Ragweed, Common) [1]; rate 0.1250 kg/ha
  Preemergence herbicidal rating AMBEL: 0.5
AMBEL (Ragweed, Common) [1]; rate 0.2500 kg/ha
  Preemergence herbicidal rating AMBEL: 5.5
AMBEL (Ragweed, Common) [1]; rate 0.5000 kg/ha
  Preemergence herbicidal rating AMBEL: 9.0
[2]; rate 0.0156 kg/ha
  Preemergence herbicidal rating IPOHE: 0.0
[2]; rate 0.0313 kg/ha
  Preemergence herbicidal rating IPOHE: 0.0
[2]; rate 0.0625 kg/ha
  Preemergence herbicidal rating IPOHE: 0.5
[2]; rate 0.1250 kg/ha
  Preemergence herbicidal rating IPOHE: 0.5
[2]; rate 0.2500 kg/ha
  Preemergence herbicidal rating IPOHE: 0.0
[2]; rate 0.5000 kg/ha
  Preemergence herbicidal rating IPOHE: 1.0
[3]; Rate 0.0158 kg/ha
  Postemergence herbicidal rating IPOHE: 9.0
[3]; Rate 0.0313 kg/ha
  Postemergence herbicidal rating IPOHE: 9.0
[3]; Rate 0.0625 kg/ha
  Postemergence herbicidal rating IPOHE: 9.0
[3]; Rate 0.1250 kg/ha
  Postemergence herbicidal rating IPOHE: 9.0
ABUTH (Velvetleaf); rate 0.0156 kg/ha
  Preemergence herbicidal rating ABUTH: 0.0
ABUTH (Velvetleaf); rate 0.0313 kg/ha
  Preemergence herbicidal rating ABUTH: 2.5
ABUTH (Velvetleaf); rate 0.0625 kg/ha
  Preemergence herbicidal rating ABUTH: 1.5
ABUTH (Velvetleaf); rate 0.1250 kg/ha
  Preemergence herbicidal rating ABUTH: 9.0
ABUTH (Velvetleaf); rate 0.2500 kg/ha
  Preemergence herbicidal rating ABUTH: 9.0
ABUTH (Velvetleaf); rate 0.5000 kg/ha
  Preemergence herbicidal rating ABUTH: 9.0
[4]; Rate 0.0158 kg/ha
  Postemergence herbicidal rating GLXMAW: 3.5
[4]; Rate 0.0313 kg/ha
  Postemergence herbicidal rating GLXMAW: 5.5
[4]; Rate 0.0625 kg/ha
  Postemergence herbicidal rating GLXMAW: 6.0
[4]; Rate 0.1250 kg/ha
  Postemergence herbicidal rating GLXMAW: 6.0
[5]; Rate 0.0158 kg/ha
  Postemergence herbicidal rating TRZAWR: 2.0
[5]; Rate 0.0313 kg/ha
  Postemergence herbicidal rating TRZAWR: 3.5
[5]; Rate 0.0625 kg/ha
  Postemergence herbicidal rating TRZAWR: 4.0
[5]; Rate 0.1250 kg/ha
  Postemergence herbicidal rating TRZAWR: 4.0
ECHCG (Barnyardgrass); Rate 0.0158 kg/ha
  Postemergence herbicidal rating ECHCG: 0.0
ECHCG (Barnyardgrass); Rate 0.0313 kg/ha
  Postemergence herbicidal rating ECHCG: 0.0
ECHCG (Barnyardgrass); Rate 0.0625 kg/ha
  Postemergence herbicidal rating ECHCG: 0.0
ECHCG (Barnyardgrass); Rate 0.1250 kg/ha
  Postemergence herbicidal rating ECHCG: 2.0
[6]; rate 0.0156 kg/ha
  Preemergence herbicidal rating GLXMAW: 0.0
[6]; rate 0.0313 kg/ha
  Preemergence herbicidal rating GLXMAW: 0.5
[6]; rate 0.0625 kg/ha
  Preemergence herbicidal rating GLXMAW: 0.5
[6]; rate 0.1250 kg/ha
  Preemergence herbicidal rating GLXMAW: 0.5
[6]; rate 0.2500 kg/ha
  Preemergence herbicidal rating GLXMAW: 1.0
[6]; rate 0.5000 kg/ha
  Preemergence herbicidal rating GLXMAW: 3.0
[7]; 0.1250 kg/ha
  Herbicidal rating SAGPY: 0.0
[7]; 0.2500 kg/ha
  Herbicidal rating SAGPY: 0.0
CASOB (Sicklepod) [8]; Rate 0.0158 kg/ha
  Postemergence herbicidal rating CASOB: 0.0
CASOB (Sicklepod) [8]; Rate 0.0313 kg/ha
  Postemergence herbicidal rating CASOB: 0.0
CASOB (Sicklepod) [8]; Rate 0.0625 kg/ha
  Postemergence herbicidal rating CASOB: 0.0
CASOB (Sicklepod) [8]; Rate 0.1250 kg/ha
  Postemergence herbicidal rating CASOB: 3.0
[9]; rate 0.0156 kg/ha
  Preemergence herbicidal rating CHEAL: 4.5
[9]; rate 0.0313 kg/ha
  Preemergence herbicidal rating CHEAL: 4.5
[9]; rate 0.0625 kg/ha
  Preemergence herbicidal rating CHEAL: 9.0
[9]; rate 0.1250 kg/ha
  Preemergence herbicidal rating CHEAL: 9.0
[9]; rate 0.2500 kg/ha
  Preemergence herbicidal rating CHEAL: 9.0
[9]; rate 0.5000 kg/ha
  Preemergence herbicidal rating CHEAL: 9.0
[10]; Rate 0.0158 kg/ha
  Postemergence herbicidal rating CHEAL: 3.0
[10]; Rate 0.0313 kg/ha
  Postemergence herbicidal rating CHEAL: 0.0
[10]; Rate 0.0625 kg/ha
  Postemergence herbicidal rating CHEAL: 2.0
[10]; Rate 0.1250 kg/ha
  Postemergence herbicidal rating CHEAL: 6.0
CASOB (Sicklepod) [11]; rate 0.0156 kg/ha
  Preemergence herbicidal rating CASOB: 0.5
CASOB (Sicklepod) [11]; rate 0.0313 kg/ha
  Preemergence herbicidal rating CASOB: 0.0
CASOB (Sicklepod) [11]; rate 0.0625 kg/ha
  Preemergence herbicidal rating CASOB: 0.0
CASOB (Sicklepod) [11]; rate 0.1250 kg/ha
  Preemergence herbicidal rating CASOB: 0.0
CASOB (Sicklepod) [11]; rate 0.2500 kg/ha
  Preemergence herbicidal rating CASOB: 0.0
CASOB (Sicklepod) [11]; rate 0.5000 kg/ha
  Preemergence herbicidal rating CASOB: 0.0
AMBEL (Ragweed, Common) [12]; Rate 0.0158 kg/ha
  Postemergence herbicidal rating AMBEL: 3.0
AMBEL (Ragweed, Common) [12]; Rate 0.0313 kg/ha
  Postemergence herbicidal rating AMBEL: 0.0
AMBEL (Ragweed, Common) [12]; Rate 0.0625 kg/ha
  Postemergence herbicidal rating AMBEL: 3.0
AMBEL (Ragweed, Common) [12]; Rate 0.1250 kg/ha
  Postemergence herbicidal rating AMBEL: 9.0
ORYSAT (Rice, Tebonnet); rate 0.0156 kg/ha
  Preemergence herbicidal rating ORYSAT: 0.0
ORYSAT (Rice, Tebonnet); rate 0.0313 kg/ha
  Preemergence herbicidal rating ORYSAT: 0.0
ORYSAT (Rice, Tebonnet); rate 0.0625 kg/ha
  Preemergence herbicidal rating ORYSAT: 0.0
ORYSAT (Rice, Tebonnet); rate 0.1250 kg/ha
  Preemergence herbicidal rating ORYSAT: 0.0
ORYSAT (Rice, Tebonnet); rate 0.2500 kg/ha
  Preemergence herbicidal rating ORYSAT: 1.5
ORYSAT (Rice, Tebonnet); rate 0.5000 kg/ha
  Preemergence herbicidal rating ORYSAT: 4.0
